Experimental findings from US20050026827A1, “Octapeptide bombesin analogs” (Societe de Conseils de Recherches et d'Applications …, priority 1987, published 2005) are described below.

Where two headings read alike, the source gives them in different places. Non-standard residues stand in square brackets, D forms with d. Residues, ends and D or L forms follow the SMILES beside them. *: point of attachment. X1 = CC(C)C[C@H](NC[C@H](Cc1ccccc1)N*)C(N)=O; X2 = CC(C)C[C@@H](CN[C@@H](CC(C)C)C(N)=O)N*; Sta = CC(C)C[C@H](N)[C@@H](O)CC(=O)O; pGlu = O=C1CC[C@@H](C(=O)O)N1 Where only a bound is given, the exact number is not on record here.

Data set [1] addresses swiss 3T3 cells (Mus musculus, UniProt P21729). As to the kind of experiment: Bombesin-stimulated [3H]thymidine uptake by cultured 3T3 cells. As to conditions: Table 1. The class given is cell-based, murine. As to the method:
Phase 1—3T3 Peptide Stimulated [^3H] Thymidine Uptake Assay
Cell Culture. Stock cultures of swiss 3T3 cells are grown in Dulbecco's Modified Eagles Medium (DMEM) supplemented with 10% fetal calf serum in humidified atmosphere of 10% CO2/90% air at 37° C. For experimental use, the cells are seeded into 24-well cluster trays and used four days after she last change of medium. The cells are arrested in the G1/G0 phase of the cell cycle by changing to serum-free DMEM 24 hours prior to the thymidine uptake assay.
Assay of DNA Synthesis. The cells are washed twice with 1 ml aliquots of DMEM (-serum) then incubated with DMEM (-serum), 0.5 μM [methyl-^3H] thymidine (20 Ci/mmole, New England Nuclear), bombesin (3 nM), and initially four concentrations of the test compounds (1, 10, 100, 1000 nM) in a final volume of 1.0 ml. After 28 hours at 37° C., [methyl-^3H] thymidine incorporation into acid-insoluble pools is assayed as follows. The cells are washed twice with ice-cold 0.9% NaCl (1 ml aliquots), and acid soluble radioactivity is removed by a 30 min. (4° C.) incubation with 5% trichloroacetic acid (TCA). The cultures are then washed once (1 ml) with 95% ethanol and solubilized by a 30 min. incubation (1 ml) with 0.1N NaOH. The solubilized material is transferred to vials containing 10 ml ScintA (Packard), and the radioactivity is determined by liquid scintillation spectrometry.
(§1) A number of analogs of bombesin or GRP, each containing a non-peptide bond or a statine, AHPPA, or ACHPA, β-amino acid, or γ-amino acid residue, can be synthesized and tested in one or more of the above-described Phase 1-7 assays; the results of Phase 1 and 2 tests are given in Table 1 attached hereto. […] (3T3 GRP receptor and thymidine uptake data are expressed in IC50 (nM).) Table 1 also gives results for non-peptide bond-containing analogs of one other naturally-occurring peptide, Neuromedin C, whose C-terminal seven amino acids are similar to those of bombesin and GRP. (In Table 1, “Litorin” indicates a 9 residue peptide analog or its derivative, whereas “Neuromedin C” indicates a 10 residue analog or its derivative.)

Data set [2] addresses T1, 3T3 fibroblast bombesin receptors (3T3 GRP receptor) (Mus musculus, UniProt P21729).
T1 construct: Membranes from various tissues (rat brain, rat pancreas, rat anterior pituitary, SCLC, 3T3 cells) are prepared by homogenization; endogenous in cells; host or cells: 3T3 fibroblasts (membrane preparation)
As to the kind of experiment: In vitro inhibition of [125I]GRP binding to 3T3 fibroblast bombesin receptors. More on the design: species or system murine. As to conditions: for activity in the 3T3 GRP receptor binding assay (in words): Table 1. The method, then: Phase 4—In Vitro Inhibition of [^125I] Gastrin Releasing Peptide (GRP) Binding to Bombesin Receptors
Membranes from various tissues (rat brain, rat pancreas, rat anterior pituitary, SCLC, 3T3 cells) are prepared by homogenization in 50 mM TrisHCl containing 0.1% bovine serum albumin and 0.1 mg/ml bacitracin followed by two centrifugations (39,000×g×15 min., 4° C.) with an intermediate resuspension in-fresh buffer. For assay, aliquots […] are incubated with 0.5 nM [^125I]GRP (˜2000 Ci/mmol, Amersham Corp.) and various concentrations of the test compounds in a final volume of 0.5 ml. After a 30 minute incubation at 4° C., the binding reaction is terminated by rapid filtration through Whatman GF/C filters that have been pre-soaked in 0.3% aqueous polethyleneimine to reduce the level of nonspecific binding. The filters and tubes are washed three times with 4 ml aliquots of ice-cold buffer, and the radioactivity trapped on the filters is counted by gamma-spectrometry. Specific binding is defined as the total. [^125I]GRP bound minus that bound in the presence of 1000 nM. bombesin or a related peptide.
as §1

For data set [3], the system named is NCI-H69 human SCLC. Put plainly: In vivo antitumor activity, NCI-H69 small cell lung carcinoma xenografts. As to conditions: for Tumor Size Day 18 (mm) / % Test/Control (Day 18) / % Test/Control (Day 28) / Tumor Size Day 28 (mm): 50 μg/inj., b.i.d., QD1-28; for Tumor Size Day 18 (mm) / Tumor Size Day 28 (mm): mean ± SD. The method, then: Phase 6—In Vivo Antitumor Activity
NCI-H69 small cell lung carcinoma cells were transplanted from in vitro culture by implanting each animal with the equivalent of 5 confluent 75 cm^2 tissue culture flasks in the right flank. In vitro NCI-H69 cells grow as a suspension of cellular aggregates. Therefore, no attempt was made to disaggregate the cell agglomerates by physical or chemical means. Tumor size was calculated as the average of two diameters, i.e., (length and width/2) mm.
(§2) These observations prompted us to evaluate the effect of BIM-26100 on the in vivo growth of the SCLC tumor cell line described in Phase 6. Twenty athymic nude females, 5 to 6 weeks of age, were implanted on day 0 with the NCI-H69 human SCLC, individually identified and then randomized into the following vehicle control and test groups:
(§3) Growth of NCI-H69 xenografts and the tumor growth inhibitory activity of the bombesin antagonist BIM-26100 (pGlu-Gln-Trp-Ala-Val-Gly-His-Pheψ[CH2NH]Leu-NH2) are illustrated as tumor growth curves in FIG. 1, and relative tumor sizes in Table 2. […] The effectiveness of the antitumor activity of BIM-26100 is evident in view of the large inoculum of NCI-H69 tumor cells (i.e. the equivalent of 5 confluent 75 cm^2 cell culture flasks per animal) and the agglomerated condition of the cells. In confluent flasks, NCI-H69 agglomerates are macroscopically visible and together resemble a metastatic tumor colony. Many such tumor colonies were implanted per animal. The dose of BIM-26100 […] and is not optimal. Higher doses of BIM-26100 may be administered, as indicated by body weight gain (minus tumor weight) gain during the course of treatment (Table 3).

Data set [4] can be described thus: Body weight (minus tumor weight) during BIM-26100 treatment of tumor-bearing animals. The format is in vivo, athymic nude females. Particulars: for Body Weight(gm) Day 0 / Body Weight(gm) Day 18 / Body Weight(gm) Day 28: 50 μg/inj., b.i.d., QD1-28, tumor weight subtracted.
Description: as §2, §3

The target in data set [5] is 3T3 fibroblast bombesin receptors (murine (3T3 murine fibroblasts)) (UniProt P21729).

T1 sequence (P21729 whole entry): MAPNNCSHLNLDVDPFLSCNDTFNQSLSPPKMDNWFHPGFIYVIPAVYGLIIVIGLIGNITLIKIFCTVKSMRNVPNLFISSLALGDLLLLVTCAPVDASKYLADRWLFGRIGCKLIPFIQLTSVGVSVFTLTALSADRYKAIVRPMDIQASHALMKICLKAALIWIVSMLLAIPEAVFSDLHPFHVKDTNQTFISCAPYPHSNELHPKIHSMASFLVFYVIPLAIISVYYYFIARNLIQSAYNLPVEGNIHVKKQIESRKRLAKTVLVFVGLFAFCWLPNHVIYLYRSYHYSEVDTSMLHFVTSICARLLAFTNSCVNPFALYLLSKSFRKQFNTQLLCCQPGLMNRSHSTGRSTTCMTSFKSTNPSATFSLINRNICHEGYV
Chain of swiss 3T3 cells (P21729 whole entry): as above

Take `CC(C)C[C@@H](CN[C@@H](CC(C)C)C(N)=O)NC(=O)[C@H](Cc1c[nH]cn1)NC(=O)CNC(=O)[C@@H](NC(=O)[C@H](C)NC(=O)[C@H](Cc1c[nH]c2ccccc12)NC(=O)[C@H](Cc1c[nH]cn1)NC(=O)[C@H](CC(N)=O)NC(=O)CN)C(C)C` [BIM-26092, Gly-Asn-His-Trp-Ala-Val-Gly-His-Leuψ[CH2NH]Leu-NH2] (H-GNHWAVGH-X2): the “activity in the 3T3 thymidine uptake assay (in words)” value in data set [1] was “antagonists”. In data set [2], the “activity in the 3T3 GRP receptor binding assay (in words)” value is listed as “antagonists”.

Consider `CC(C)C[C@@H](CN[C@@H](CC(C)C)C(N)=O)NC(=O)[C@H](Cc1c[nH]cn1)NC(=O)[C@@H](C)NC(=O)[C@@H](NC(=O)[C@H](C)NC(=O)[C@H](Cc1c[nH]c2ccccc12)NC(=O)[C@H](CCC(N)=O)NC(=O)[C@@H]1CCC(=O)N1)C(C)C` [BIM-26095, pGlu-Gln-Trp-Ala-Val-D-Ala-His-Leuψ[CH2NH]Leu-NH2] ([pGlu]QWAV[dA]H-X2), for which the IC50 in data set [2] (inhibition of [125I]GRP binding, 3T3 membranes, read-out: 3T3 GRP Receptor IC50) amounted to 2620 nM.

With `CC(C)C[C@H](NC[C@H](Cc1ccccc1)NC(=O)[C@H](Cc1c[nH]cn1)NC(=O)CNC(=O)[C@@H](NC(=O)[C@H](C)NC(=O)[C@H](Cc1c[nH]c2ccccc12)NC(=O)[C@H](CCC(N)=O)NC(=O)[C@@H]1CCC(=O)N1)C(C)C)C(N)=O` [BIM-26100, pGlu-Gln-Trp-Ala-Val-Gly-His-Pheψ[CH2NH]Leu-NH2] ([pGlu]QWAVGH-X1), the “Tumor Size Day 18 (mm)” value in data set [3] (s.c. inf. (infused around tumor)) was 7.6 ± 1.56 mm. Further, in data set [3] (s.c. inf.), the “% Test/Control (Day 18)” value was 70%, the “% Test/Control (Day 28)” value is listed as 86% and the “Tumor Size Day 28 (mm)” value was 13.7 ± 0.67 mm. For the same molecule, in data set [3] (s.c.), the “% Test/Control (Day 18)” value was found to be 93%, the “Tumor Size Day 18 (mm)” value stood at 10.1 ± 1.47 mm, the “% Test/Control (Day 28)” value came out at 108% and the “Tumor Size Day 28 (mm)” value is 17.3 ± 1.96 mm. In addition, the “tumor growth inhibitory activity (in words)” value in data set [3] (s.c. infusion around the tumor) is listed as “significantly inhibited tumor growth”. Also, in data set [2], the “activity in the 3T3 GRP receptor binding assay (in words)” value was “most active”. In addition, in data set [4] (s.c. inf.), the “Body Weight(gm) Day 0” value was 17.7 gm, the “Body Weight(gm) Day 18” value stood at 20.4 gm and the “Body Weight(gm) Day 28” value was 21.1 gm. In data set [4] (s.c.), the “Body Weight(gm) Day 0” value is 16.9 gm, the “Body Weight(gm) Day 18” value amounted to 19.2 gm and the “Body Weight(gm) Day 28” value stood at 19.1 gm. Besides, the “local or systemic toxicity (in words)” value in data set [4] (judged from body weight gain during treatment) is “completely lacks local or systemic toxicity”.

As for `CC(C)C[C@@H](CN[C@@H](CC(C)C)C(N)=O)NC(=O)[C@H](Cc1c[nH]cn1)NC(=O)CNC(=O)[C@@H](NC(=O)[C@H](C)NC(=O)[C@H](Cc1c[nH]c2ccccc12)NC(=O)[C@H](CCC(N)=O)NC(=O)[C@@H]1CCC(=O)N1)C(C)C` [BIM-26101, pGlu-Gln-Trp-Ala-Val-Gly-His-Leuψ[CH2NH]Leu-NH2] ([pGlu]QWAVGH-X2), in data set [2], the “activity in the 3T3 GRP receptor binding assay (in words)” value is “most active”.

Turning to `CC(C)C[C@@H](CN[C@@H](CC(C)C)C(N)=O)NC(=O)[C@H](Cc1c[nH]cn1)NC(=O)CNC(=O)[C@@H](NC(=O)[C@H](C)NC(=O)[C@H](Cc1c[nH]c2ccccc12)NC(=O)[C@H](CCC(N)=O)NC(=O)[C@H](N)Cc1ccccc1)C(C)C` [BIM-26113, D-Phe-Gln-Trp-Ala-Val-Gly-His-Leuψ[CH2NH]Leu-NH2], in data set [2], the IC50 came out at 5.8 nM and the “activity in the 3T3 GRP receptor binding assay (in words)” value was “active”.

In the case of `CC(C)C[C@H](NC(=O)[C@H](Cc1c[nH]cn1)NC(=O)CNC(=O)[C@@H](NC(=O)[C@H](C)NC(=O)[C@H](Cc1c[nH]c2ccccc12)NC(=O)[C@H](CCC(N)=O)NC(=O)[C@@H]1CCC(=O)N1)C(C)C)[C@@H](O)CC(N)=O` [BIM-26120, pGlu-Gln-Trp-Ala-Val-Gly-His-Sta-NH2] ([pGlu]QWAVGH[Sta]-NH2), the “activity in the 3T3 thymidine uptake assay (in words)” value in data set [1] is “potent antagonists”.

Take “BIM-26095, pGlu-Gln-Trp-Ala-Val-D-Ala-His-Leuψ[CH2NH]Leu-NH2 (Litorin analog) (peptide)”: the bombesin-stimulated [3H]Thymidine uptake, IC50 in data set [5] amounted to 1210 nM.

As for “BIM-26105, D-Ala-Asn-His-Trp-Ala-Val-D-ALa-His-Leuψ[CH2CH]Leu-NH2 (Neuromedin C analog) (peptide)”, in data set [5], the bombesin-stimulated [3H]Thymidine uptake, IC50 is 107 nM.

“BIM-26106, desGly-D-Ala-His-Trp-Ala-Val-D-ALa-His-Leuψ[CH2CH]Leu-NH2 (Neuromedin C analog) (peptide)” came in with a bombesin-stimulated [3H]Thymidine uptake, IC50 in data set [5] of 354 nM.

“BIM-26107, D-Phe-His-Trp-Ala-Val-Gly-His-Leuψ[CH2NH]Leu-NH2 (Neuromedin C analog) (peptide)”: the bombesin-stimulated [3H]Thymidine uptake, IC50 in data set [5] is 154 nM.

As to “BIM-26108, N-Ac-D-Ala-His-Trp-Ala-Val-Gly-His-Leuψ[CH2NH]Leu-NH2 (GRP (19-27) analog) (peptide)”, in data set [5], the bombesin-stimulated [3H]Thymidine uptake, IC50 is > 1000 nM.

In data set [5], “BIM-26113, D-Phe-Gln-Trp-Ala-Val-Gly-His-Leuψ[CH2NH]Leu-NH2 (Litorin analog) (peptide)” came in with a bombesin-stimulated [3H]Thymidine uptake, IC50 of 9 nM.

Regarding “BIM-26122, D-Phe-Gln-Trp-Ala-Val-Gly-His-Leu-NH2 (Litorin analog) (peptide)”, the bombesin-stimulated [3H]Thymidine uptake, IC50 in data set [5] was 28.6 nM.

For orientation: IC50 means the concentration that inhibits the measured activity by half.
